In the supplement of paper PMC10307832:

Tests used:
Assay in all cases: relative viability (nuclei count vs DMSO), 5 days (fraction); higher = more cells survive
Vismodegib + Luminespib = compound: CS(=O)(=O)c1ccc(C(=O)Nc2ccc(Cl)c(-c3ccccn3)c2)c(Cl)c1 [Vismodegib] + CCNC(=O)c1noc(-c2cc(C(C)C)c(O)cc2O)c1-c1ccc(CN2CCOCC2)cc1 [Luminespib] (partner 0.01 µM)
Method in brief: (§1)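 Lung cancer cell lines were pin-tool dosed in 1536-well plates on the day after seeding, with either a lone drug or a fixed anchor-drug dose plus five library-drug doses (not always all listed) in √10 steps. Nuclei were counted on 4× images after 5 days. Relative viability is the ratio of treated-well to vehicle-well nuclei counts, with each value a median of duplicate plates.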

Ruxolitinib + Luminespib = compound: N#CC[C@H](C1CCCC1)n1cc(-c2ncnc3[nH]ccc23)cn1 [Ruxolitinib] + CCNC(=O)c1noc(-c2cc(C(C)C)c(O)cc2O)c1-c1ccc(CN2CCOCC2)cc1 [Luminespib] (partner 0.01 µM)
Method in brief: as §1

Ruxolitinib + Crizotinib = compound: N#CC[C@H](C1CCCC1)n1cc(-c2ncnc3[nH]ccc23)cn1 [Ruxolitinib] + C[C@@H](Oc1cc(-c2cnn(C3CCNCC3)c2)cnc1N)c1c(Cl)ccc(F)c1Cl [Crizotinib] (partner 1 µM)
Method in brief: as §1

Ruxolitinib + Phenformin = compound: N#CC[C@H](C1CCCC1)n1cc(-c2ncnc3[nH]ccc23)cn1 [Ruxolitinib] + N=C(N)NC(=N)NCCc1ccccc1 [Phenformin] (partner 250 µM)
Method in brief: as §1

Cell Line | relative viability (Vismodegib + Luminespib; first compound 0.08 µM) | relative viability (Vismodegib + Luminespib; first compound 0.253 µM) | relative viability (Vismodegib + Luminespib; first compound 0.8 µM) | relative viability (Vismodegib + Luminespib; first compound 2.53 µM) | relative viability (Vismodegib + Luminespib; first compound 8 µM) | relative viability (Ruxolitinib + Luminespib; first compound 0.08 µM) | relative viability (Ruxolitinib + Luminespib; first compound 0.253 µM) | relative viability (Ruxolitinib + Luminespib; first compound 0.8 µM) | relative viability (Ruxolitinib + Luminespib; first compound 2.53 µM) | relative viability (Ruxolitinib + Luminespib; first compound 8 µM) | relative viability (Ruxolitinib + Crizotinib; first compound 0.253 µM) | relative viability (Ruxolitinib + Crizotinib; first compound 0.8 µM) | relative viability (Ruxolitinib + Crizotinib; first compound 2.53 µM) | relative viability (Ruxolitinib + Crizotinib; first compound 8 µM) | relative viability (Ruxolitinib + Phenformin; first compound 0.08 µM) | relative viability (Ruxolitinib + Phenformin; first compound 0.253 µM) | relative viability (Ruxolitinib + Phenformin; first compound 0.8 µM) | relative viability (Ruxolitinib + Phenformin; first compound 2.53 µM) | relative viability (Ruxolitinib + Phenformin; first compound 8 µM) | relative viability (Ruxolitinib + Crizotinib; first compound 0.08 µM)
ChaGo-K-1 | 0.565 | 0.622 | 0.598 | 0.525 | 0.516 | 0.635 | 0.655 | 0.605 | 0.492 | 0.517 | 1.13 | 1.22 | 0.963 | 0.997 | 0.45 | 0.401 | 0.414 | 0.449 | 0.446 | 
HCC-44 | 1 | 0.966 | 1 | 0.979 | 1.05 | 1.02 | 1.07 | 1.2 | 0.689 | 0.527 | 0.839 | 0.866 | 0.854 | 0.527 | 0.103 | 0.143 | 0.228 | 0.168 | 0.216 | 0.765
NCI-H441 | 0.348 | 0.281 | 0.284 | 0.304 | 0.38 | 0.299 | 0.424 | 0.319 | 0.472 | 0.317 | 0.585 | 0.847 | 0.724 | 0.555 | 0.769 | 0.743 | 1.13 | 0.688 | 0.651 | 0.682
NCI-H1299 |  |  |  |  |  |  |  |  |  |  | 0.909 | 0.973 | 0.839 | 0.704 |  |  |  |  |  | 0.981
LU99A | 0.257 | 0.233 | 0.323 | 0.257 | 0.305 | 0.224 | 0.265 | 0.353 | 0.23 | 0.23 | 0.655 | 0.532 | 0.612 | 0.519 | 1.06 | 0.931 | 0.801 | 0.782 | 0.755 | 0.588
NCI-H520 | 0.24 | 0.225 | 0.198 | 0.207 | 0.212 | 0.211 | 0.209 | 0.236 | 0.215 | 0.241 | 0.714 | 0.964 | 0.708 | 0.645 | 0.565 | 0.323 | 0.717 | 0.483 | 0.58 | 
EPLC-272H | 0.298 | 0.224 | 0.263 | 0.235 | 0.442 | 0.632 | 0.224 | 0.241 | 0.295 | 0.174 | 0.945 | 1.2 | 0.729 | 0.863 | 0.297 | 0.323 | 0.306 | 0.278 | 0.269 | 0.925
PC-14 | 0.132 | 0.137 | 0.151 | 0.165 | 0.14 |  | 0.181 | 0.175 | 0.171 | 0.169 | 0.949 | 0.883 | 0.819 | 0.655 |  | 0.436 | 0.518 | 0.566 | 0.604 | 
LCLC-103H | 1.03 | 0.968 | 0.93 | 0.884 | 1.07 | 0.851 | 0.862 | 0.959 | 1.04 | 0.956 | 1.15 | 1.2 | 1.09 | 0.988 | 0.349 | 0.326 | 0.298 | 0.337 | 0.286 | 1.04
COR-L 105 | 0.657 | 0.785 | 0.92 | 0.973 | 0.773 | 0.707 | 0.93 | 0.789 | 0.538 | 0.511 | 0.634 | 0.853 | 0.444 | 0.625 | 0.409 | 0.495 | 0.425 | 0.392 | 0.374 | 0.789
NCI-H2342 | 0.588 | 0.728 | 0.748 | 0.79 | 0.71 | 0.748 | 0.79 | 0.863 | 0.788 | 0.728 |  |  |  |  | 0.55 | 0.484 | 0.662 | 0.55 | 0.613 | 
SW 900 | 0.183 | 0.164 | 0.164 | 0.19 | 0.163 | 0.175 | 0.181 | 0.181 | 0.154 | 0.193 |  |  |  |  | 0.532 | 0.624 | 0.702 | 0.543 | 0.457 | 
LOU-NH91 | 0.28 | 0.334 | 0.352 | 0.366 | 0.301 |  | 0.361 | 0.35 | 0.316 | 0.382 | 0.723 | 0.788 | 0.707 | 0.704 |  | 0.708 | 0.765 | 0.63 | 0.747 | 0.626
HCC-15 | 0.17 | 0.267 | 0.254 | 0.508 | 0.29 | 0.345 | 0.216 | 0.555 | 0.302 | 0.203 | 0.839 | 0.883 | 0.794 | 0.693 | 0.423 | 0.444 | 0.494 | 0.393 | 0.399 | 0.774
A-427 | 0.912 | 0.831 | 0.856 | 0.876 | 0.824 |  | 0.969 | 1 | 0.715 | 0.813 | 1.07 | 0.867 | 0.66 | 0.789 | 0.291 | 0.3 | 0.338 | 0.281 | 0.276 | 0.843
SW 1573 |  | 0.216 | 0.174 | 0.215 | 0.207 | 0.228 | 0.214 | 0.184 | 0.241 | 0.21 | 0.75 | 0.969 | 0.791 | 0.733 | 0.419 | 0.324 | 0.417 | 0.308 | 0.369 | 0.887
NCI-H2087 | 0.171 | 0.192 | 0.172 | 0.203 | 0.209 | 0.158 | 0.15 | 0.172 | 0.233 | 0.17 | 1.07 | 1 | 0.919 | 0.615 | 0.531 | 0.388 | 0.523 | 0.409 | 0.382 | 0.928
LK-2 | 0.175 | 0.185 | 0.207 | 0.151 | 0.214 | 0.184 | 0.157 | 0.187 | 0.203 | 0.168 | 0.224 | 0.243 | 0.283 | 0.239 | 0.337 | 0.499 | 0.359 | 0.292 | 0.692 | 
